Results published in PMC9904277, “Rational design of Harakiri (HRK)-derived constrained peptides as BCL-xL inhibitors” (Chemical Communications (Cambridge, England), 2023).
*1 amine or outer side, *2 acyl side, *3 side chain or, on linkers, in order; H or OH if unused. Where a SMILES comes first, the peptide text is derived from it. Bridges are numbered along the chain shown (N, C = ends). [ ]: non-standard residue; d: D form. The star is where a group is joined. 5FAM = O=C1OC2(c3ccc(O)cc3Oc3cc(O)ccc32)c2ccc(C(=O)*)cc21; Maleimide(3,4-diyl) = O=C1NC(=O)C([*:2])=C1[*:1]; Nle = CCCC[C@H](N)C(=O)O; Ahx = NCCCCCC(=O)O

Experiments:
[1] = biological target: T1, MCL-1 (Homo sapiens, UniProt Q07820); test: biochemical
[2] = biological target: T2, BCL-xL (Homo sapiens, UniProt Q07817, DEL27-82); test: Direct FA titration of FAM-labelled tracer with BCL-xL; type: binding; conditions: FAM-Ahx-Beclin-1 150 nM, BCL-xL 6 nM-125 μM, 25 mM Tris, 150 mM NaCl, pH 7.4, 20 °C
T2 construct: BCL-2, 1-209; His-SUMO (N, cleaved yes); made in house; host or cells: E. coli BL21

[3] = biological target: T1, MCL-1; conditions: IC50 HRK/MCL-1 divided by IC50 HRK/BCL-xL

T1 sequence (Q07820 172-327): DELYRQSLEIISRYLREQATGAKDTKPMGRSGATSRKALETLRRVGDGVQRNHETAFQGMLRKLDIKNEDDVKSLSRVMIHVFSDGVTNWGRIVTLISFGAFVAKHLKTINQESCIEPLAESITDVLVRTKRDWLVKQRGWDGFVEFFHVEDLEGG
T2 sequence (Q07817 with tags, fused parts or gaps DEL27-82): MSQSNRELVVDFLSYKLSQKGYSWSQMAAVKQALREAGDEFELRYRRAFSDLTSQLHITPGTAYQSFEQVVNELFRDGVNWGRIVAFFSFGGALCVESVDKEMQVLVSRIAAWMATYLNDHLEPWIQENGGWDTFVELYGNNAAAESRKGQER

Compound | IC50 [1] | Kd [2] | IC50 ratio MCL-1 : BCL-xL (selectivity index) [3]
CSCC[C@H](NC(=O)[C@H](CCCNC(=N)N)NC(=O)[C@H](CCCNC(=N)N)NC(=O)[C@H](CC(C)C)NC(=O)[C@H](CCC(=O)O)NC(=O)[C@H](CCCNC(=N)N)NC(=O)CNC(=O)[C@H](Cc1ccc(O)cc1)NC(=O)[C@H](CCCNC(=N)N)NC(=O)[C@H](CCC(N)=O)NC(=O)[C@H](C)NC(=O)[C@H](C)NC(=O)[C@H](Cc1c[nH]c2ccccc12)NC(=O)[C@H](CC(C)C)NC(=O)[C@H](CC(N)=O)NC(C)=O)C(=O)N[C@@H](CO)C(=O)N[C@@H](CC(=O)O)C(=O)N[C@@H](CCC(=O)O)C(=O)N[C@@H](Cc1ccccc1)C(=O)N[C@H](C(=O)N[C@@H](CC(=O)O)C(=O)N[C@@H](CO)C(=O)N[C@@H](Cc1ccccc1)C(=O)N[C@@H](CCCCN)C(=O)N[C@@H](CCCCN)C(N)=O)C(C)C [BAD-wt, reference compound] | > 50 µM | – | –
CC[C@H](C)[C@H](NC(=O)[C@H](CC(=O)O)NC(=O)[C@H](Cc1ccccc1)NC(=O)[C@H](CC(C)C)NC(=O)[C@H](CC(=O)O)NC(=O)CNC(=O)[C@@H](NC(=O)[C@@H](NC(=O)[C@H](CCCCN)NC(=O)[C@H](CC(C)C)NC(=O)[C@H](CCCNC(=N)N)NC(=O)[C@H](CCCNC(=N)N)NC(=O)[C@H](CO)NC(=O)[C@H](CC(C)C)NC(=O)[C@H](CC(N)=O)NC(=O)[C@H](CCC(=O)O)NC(=O)[C@H](CCSC)NC(=O)[C@@H](NC(=O)CCCCCNC(=O)c1ccc2c(c1)C(=O)OC21c2ccc(O)cc2Oc2cc(O)ccc21)[C@@H](C)O)C(C)C)[C@@H](C)O)C(=O)N[C@@H](CCSC)C(=O)N[C@@H](CO)C(N)=O [FAM-Ahx-Beclin-1] ({5FAM-Ahx}-TMENLSRRLKVTGDLFDIMS-NH2) | – | 9.7 ± 2.3 µM | –
CCCC[C@H](NC(=O)[C@H](C)NC(=O)[C@H](CCCCN)NC(=O)[C@H](CC(C)C)NC(=O)[C@H](CCCNC(=N)N)NC(=O)[C@H](C)NC(=O)[C@H](C)NC(=O)[C@H](Cc1ccc(O)cc1)NC(=O)[C@H](CC(C)C)NC(=O)[C@H](CCC(N)=O)NC(=O)[C@H](C)NC(=O)[C@H](C)NC(=O)[C@H](CO)NC(C)=O)C(=O)NCC(=O)N[C@@H](CC(=O)O)C(=O)N[C@@H](CCC(=O)O)C(=O)N[C@@H](Cc1ccccc1)C(=O)N[C@@H](Cc1c[nH]cn1)C(=O)N[C@@H](CCC(N)=O)C(N)=O [HRK-3] (Ac-SAAQLYAARLKA[Nle]GDEFHQ-NH2) | > 50 µM | – | –
CC(=O)N[C@@H](CO)C(=O)N[C@@H](C)C(=O)N[C@@H](C)C(=O)N[C@@H](CCC(N)=O)C(=O)N[C@@H](CC(C)C)C(=O)N[C@@H](Cc1ccc(O)cc1)C(=O)N[C@@H](C)C(=O)N[C@@H](CS)C(=O)N[C@@H](CCCNC(=N)N)C(=O)N[C@@H](CC(C)C)C(=O)N[C@@H](CCCCN)C(=O)N[C@@H](CS)C(=O)N[C@@H](Cc1ccccc1)C(=O)NCC(=O)N[C@@H](CC(=O)O)C(=O)N[C@@H](CCC(=O)O)C(=O)N[C@@H](Cc1ccccc1)C(=O)N[C@@H](Cc1c[nH]cn1)C(=O)N[C@@H](CCC(N)=O)C(N)=O [HRKC4H] (Ac-SAAQLYACRLKCFGDEFHQ-NH2) | > 50 µM | – | >2.5
CSCC[C@H](NC(=O)[C@@H](NC(=O)[C@H](CCCNC(=N)N)NC(=O)[C@H](CCC(N)=O)NC(=O)[C@H](Cc1c[nH]cn1)NC(=O)[C@H](CC(C)C)NC(=O)[C@H](CCC(=O)O)NC(=O)[C@H](CC(=O)O)NC(=O)CNC(=O)[C@H](CC(C)C)NC(=O)[C@H](CS)NC(=O)[C@H](CCCCN)NC(=O)[C@H](CC(C)C)NC(=O)[C@H](CCCNC(=N)N)NC(=O)[C@H](CS)NC(=O)[C@H](C)NC(=O)[C@@H](NC(=O)[C@H](CC(C)C)NC(=O)[C@H](CCC(N)=O)NC(=O)[C@H](C)NC(=O)[C@H](C)NC(=O)[C@H](CO)NC(C)=O)[C@@H](C)O)[C@@H](C)O)C(=O)N[C@@H](Cc1c[nH]c2ccccc12)C(N)=O [HRKC4] (Ac-SAAQLTACRLKCLGDELHQRTMW-NH2) | 3.9 ± 0.2 µM | – | –
CC(=O)N[C@@H](CO)C(=O)N[C@@H](C)C(=O)N[C@@H](C)C(=O)N[C@@H](CCC(N)=O)C(=O)N[C@@H](CC(C)C)C(=O)N[C@@H](Cc1ccc(O)cc1)C(=O)N[C@@H](C)C(=O)N[C@H]1CSC2=C(SC[C@@H](C(=O)N[C@@H](Cc3ccccc3)C(=O)NCC(=O)N[C@@H](CC(=O)O)C(=O)N[C@@H](CCC(=O)O)C(=O)N[C@@H](Cc3ccccc3)C(=O)N[C@@H](Cc3c[nH]cn3)C(=O)N[C@@H](CCC(N)=O)C(N)=O)NC(=O)[C@H](CCCCN)NC(=O)[C@H](CC(C)C)NC(=O)[C@H](CCCNC(=N)N)NC1=O)C(=O)NC2=O [HRKS4H] (Ac-SAAQLYACRLKCFGDEFHQ-NH2; linker 8-12 via Maleimide(3,4-diyl)) | > 50 µM | – | >5.9
Ac-RYGRELRRMSDEFVDSFKK-NH2 [BAD-s, reference compound] | > 50 µM | – | –
Ac-SAAQLLAARLKAFGDEFHQ-NH2 [HRK-5] | 16 ± 4.4 µM | – | 16.0
Ac-SAAQLLAARLKALGDELHQ-NH2 [HRK-4] | 3.5 ± 1.2 µM | – | 2.5
Ac-SAAQLTAARLKALGDELHQ-NH2 [HRK-s] | > 50 µM | – | > 2.3
Ac-SAAQLYAARLKAFGDEFHQ-NH2 [HRK-hybrid] | > 50 µM | – | >55.5
Ac-SAAQLYAARLKALGDEFHQ-NH2 [HRK-2] | > 50 µM | – | > 45.4
Ac-SAAQLYAARLKALGDELHQ-NH2 [HRK-1] | > 50 µM | – | > 5.8
